Reference: publication PMC9154810, “Selective inhibition of carbonic anhydrase IX by sulphonylated 1,2,3-triazole incorporated benzenesulphonamides capable of inducing apoptosis” (Journal of Enzyme Inhibition and Medicinal Chemistry, 2022)

Assays:
hCA I = hCA I (Homo sapiens, UniProt P00915); test: stopped-flow CO2 hydrase assay, hCA I; details: mean from three assays, stopped-flow technique, errors ± 5–10%
From the text: (§1) An Sx.18Mv-R Applied Photophysics (Oxford, UK) stopped-flow instrument was used to assay the catalytic activity of various CA isozymes for CO2 hydration reaction.[21]

hCA II = hCA II (Homo sapiens, UniProt P00918); test: stopped-flow CO2 hydrase assay, hCA II
From the text: as §1

hCA IV = hCA IV (Homo sapiens, UniProt P22748); test: stopped-flow CO2 hydrase assay, hCA IV
From the text: as §1

hCA IX = hCA IX (Homo sapiens, UniProt Q16790); test: stopped-flow CO2 hydrase assay, hCA IX; details: for Selectivity index I/IX: ratio KI hCA I / KI hCA IX; for Selectivity index II/IX: ratio KI hCA II / KI hCA IX
From the text: as §1

Sequence of hCA IV (P22748 19-312): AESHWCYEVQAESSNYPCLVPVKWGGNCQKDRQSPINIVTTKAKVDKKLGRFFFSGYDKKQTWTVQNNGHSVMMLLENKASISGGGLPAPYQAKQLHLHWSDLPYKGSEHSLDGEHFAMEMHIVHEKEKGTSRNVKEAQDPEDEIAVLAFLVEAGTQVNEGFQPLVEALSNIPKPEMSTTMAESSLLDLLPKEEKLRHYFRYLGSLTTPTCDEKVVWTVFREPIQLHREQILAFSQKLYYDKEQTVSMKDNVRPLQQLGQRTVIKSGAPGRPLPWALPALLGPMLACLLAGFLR
Sequence of hCA I (P00915 whole entry): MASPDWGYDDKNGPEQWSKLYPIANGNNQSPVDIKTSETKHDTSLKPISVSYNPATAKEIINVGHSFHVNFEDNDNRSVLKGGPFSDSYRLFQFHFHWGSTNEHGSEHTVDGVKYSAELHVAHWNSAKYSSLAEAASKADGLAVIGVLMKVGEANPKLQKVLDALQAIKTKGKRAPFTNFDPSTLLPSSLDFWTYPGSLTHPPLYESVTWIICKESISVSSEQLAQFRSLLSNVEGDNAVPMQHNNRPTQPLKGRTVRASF

| Structure (SMILES) | Ki (hCA I) [nM] | Ki (hCA II) [nM] | Ki (hCA IV) [nM] | Ki (hCA IX) [nM] | melting point [°C] | Selectivity index I/IX (hCA IX) | Selectivity index II/IX (hCA IX) | selectivity for hCA IX over hCA I (hCA IX) | selectivity for hCA IX over hCA II (hCA IX) |
| --- | --- | --- | --- | --- | --- | --- | --- | --- | --- |
| NS(=O)(=O)c1cccc(-n2nnc(S(=O)(=O)c3ccccc3)c2-c2ccc(F)cc2)c1 [Compound 10c, 3-(5-(4-fluorophenyl)-4-(phenylsulphonyl)-1H-1,2,3-triazol-1-yl)benzenesulphonamide] | 454 | 119 | 78.9 | 22.8 |  |  |  |  |  |
| COc1ccc(-c2c(S(=O)(=O)c3ccccc3)nnn2-c2cccc(S(N)(=O)=O)c2)cc1 [Compound 10g, 3-(5-(4-methoxyphenyl)-4-(phenylsulphonyl)-1H-1,2,3-triazol-1-yl)benzenesulphonamide] | 509 | 44.3 | 84 | 24.1 |  |  |  |  |  |
| Cc1ccc(-c2c(S(=O)(=O)c3ccccc3)nnn2-c2cccc(S(N)(=O)=O)c2)cc1 [Compound 10b, 3-(4-(phenylsulphonyl)-5-(p-tolyl)-1H-1,2,3-triazol-1-yl)benzenesulphonamide] | 566 | 21.8 | 347 | 21.2 | 186 to 188 | 26.71 | 1.03 |  |  |
| NS(=O)(=O)c1ccc(-n2nnc(S(=O)(=O)c3ccccc3)c2-c2ccc(F)cc2)cc1 [Compound 9c, 4-(5-(4-fluorophenyl)-4-(phenylsulphonyl)-1H-1,2,3-triazol-1-yl)benzenesulphonamide] | 264 | 6.6 | 86.1 | 66 | 207 to 209 | 4.00 | 0.10 |  |  |
| NS(=O)(=O)c1cccc(-n2nnc(S(=O)(=O)c3ccccc3)c2-c2ccc([N+](=O)[O-])cc2)c1 [Compound 10i, 3-(5-(4-nitrophenyl)-4-(phenylsulphonyl)-1H-1,2,3-triazol-1-yl)benzenesulphonamide] | 868 | 35.2 | 64.4 | 27 |  |  |  |  |  |
| NS(=O)(=O)c1cccc(-n2nnc(S(=O)(=O)c3ccccc3)c2-c2cccc(Br)c2)c1 [Compound 10f, 3-(5-(3-bromophenyl)-4-(phenylsulphonyl)-1H-1,2,3-triazol-1-yl)benzenesulphonamide] | 689 | 370 | 84.3 | 28.6 | 97 to 99 | 24.10 | 12.93 |  |  |
| NS(=O)(=O)c1cccc(-n2nnc(S(=O)(=O)c3ccccc3)c2-c2ccc(-c3ccccc3)cc2)c1 [Compound 10k, 3-(5-([1,1′-biphenyl]-4-yl)-4-(phenylsulphonyl)-1H-1,2,3-triazol-1-yl)benzenesulphonamide] | 2060 | 211 | 849 | 22.6 | 74 to 76 | 91.02 | 9.33 |  |  |
| NS(=O)(=O)c1ccc(-n2nnc(S(=O)(=O)c3ccccc3)c2-c2ccc(-c3ccccc3)cc2)cc1 [Compound 9k, 4-(5-([1,1′-biphenyl]-4-yl)-4-(phenylsulphonyl)-1H-1,2,3-triazol-1-yl)benzenesulphonamide] | 3540 | 833 | 414 | 24.8 | 214 to 216 | 142.86 | 33.60 | more than 100 fold | more than 30 fold |
| NS(=O)(=O)c1cccc(-n2nnc(S(=O)(=O)c3ccccc3)c2-c2ccc(Br)cc2)c1 [Compound 10e, 3-(5-(4-bromophenyl)-4-(phenylsulphonyl)-1H-1,2,3-triazol-1-yl)benzenesulphonamide] | 636 | 138 | 80.1 | 25.1 | 96 to 98 | 25.33 | 5.50 |  |  |
| COc1ccc(-c2c(S(=O)(=O)c3ccccc3)nnn2-c2ccc(S(N)(=O)=O)cc2)cc1 [Compound 9g, 4-(5-(4-methoxyphenyl)-4-(phenylsulphonyl)-1H-1,2,3-triazol-1-yl)benzenesulphonamide] | 7840 | 6.2 | 493 | 24.9 | 235 to 237 | 314.73 | 0.25 | more than 100 fold |  |
| COc1ccc(-c2c(S(=O)(=O)c3ccccc3)nnn2-c2ccc(S(N)(=O)=O)cc2)cc1Br [Compound 9h, 4-(5-(3-bromo-4-methoxyphenyl)-4-(phenylsulphonyl)-1H-1,2,3-triazol-1-yl)benzenesulphonamide] | 9350 | 37.6 | 1210 | 28.8 | 210 to 212 | 324.62 | 1.30 | more than 100 fold |  |
| NS(=O)(=O)c1cccc(-n2nnc(S(=O)(=O)c3ccccc3)c2-c2cccc([N+](=O)[O-])c2)c1 [Compound 10j, 3-(5-(3-nitrophenyl)-4-(phenylsulphonyl)-1H-1,2,3-triazol-1-yl)benzenesulphonamide] | 6900 | 884 | 1680 | 26.7 |  |  |  |  |  |
| NS(=O)(=O)c1ccc(-n2nnc(S(=O)(=O)c3ccccc3)c2-c2ccc(Cl)cc2)cc1 [Compound 9d, 4-(5-(4-chlorophenyl)-4-(phenylsulphonyl)-1H-1,2,3-triazol-1-yl)benzenesulphonamide] | 4630 | 56.7 | 526 | 25.1 | 213 to 215 | 184.42 | 2.26 | more than 100 fold |  |
| NS(=O)(=O)c1ccc(-n2nnc(S(=O)(=O)c3ccccc3)c2-c2cccc(Br)c2)cc1 [Compound 9f, 4-(5-(3-bromophenyl)-4-(phenylsulphonyl)-1H-1,2,3-triazol-1-yl)benzenesulphonamide] | 434 | 9.2 | 94.8 | 27.1 | 282 to 284 | 16.00 | 0.34 |  |  |
| Cc1ccc(-c2c(S(=O)(=O)c3ccccc3)nnn2-c2ccc(S(N)(=O)=O)cc2)cc1 [Compound 9b, 4-(4-(phenylsulphonyl)-5-(p-tolyl)-1H-1,2,3-triazol-1-yl)benzenesulphonamide] | 767 | 7.8 | 82.1 | 30.9 | 205 to 207 |  | 0.25 |  |  |
| NS(=O)(=O)c1ccc(-n2nnc(S(=O)(=O)c3ccccc3)c2-c2cccc([N+](=O)[O-])c2)cc1 [Compound 9j, 4-(5-(3-nitrophenyl)-4-(phenylsulphonyl)-1H-1,2,3-triazol-1-yl)benzenesulphonamide] | 45.4 | 6.1 | 89.6 | 26.3 |  |  |  |  |  |
| NS(=O)(=O)c1ccc(-n2nnc(S(=O)(=O)c3ccccc3)c2-c2ccc([N+](=O)[O-])cc2)cc1 [Compound 9i, 4-(5-(4-nitrophenyl)-4-(phenylsulphonyl)-1H-1,2,3-triazol-1-yl)benzenesulphonamide] | 285 | 4.9 | 84.7 | 32.4 |  |  |  |  |  |
